According to article PMC7613620, “Reaction hijacking of tyrosine tRNA synthetase as a whole-of-life-cycle antimalarial strategy” (Science (New York, N.Y.), 2022):

Columns and labels:
[1] = system: eIF2α phosphorylation in P. falciparum; assay: Western blot for phosphorylated-eIF2α; format: cell-based, Plasmodium falciparum
Description: Synchronous ring-stage YRScyt conditional knockdown line and the aptamer-regulatable control
700 the drug plate. Lowest drug treatment and a lethal dose of chloroquine (200 nM) served as reference
Two guide RNAs (gRNA1: […] and gRNA2:
Ring-stage P. falciparum parasites (Dd2 strain) at 10%
Using a modification of a published procedure (14), the
722 cells were labelled with O-propargyl-puromycin (OPP; 4 µM) for 1 h, washed 3x (PBS +3% serum) and
Flow cytometry was performed
730 hematocrit and 5% parasitemia. The RBC pellet was washed 3 x in PBS + cOmplete. Cells were centrifuged
The wash with PBS + cOmplete and
The pellet was resuspended in Bolt LDS sample
The samples were vortexed for 10 min at room temperature.
Secondary antibodies: goat
740 anti-rabbit IgG-peroxidase (Sigma-Aldrich-A0545; 1:20 000), goat anti-mouse IgG-peroxidase (Chemicon-
Chemiluminescence was detected using the Bio-Rad ChemiDocTM MP imaging
For the human mature YRS construct,
The YRS sequences were codon optimized for E. coli,
The vector was transformed into
PfYRS, PfYRSS234C and HsYRS were induced
Cell pellets were resuspended in 40 mL lysis
Cells were lysed by sonication (Microtip, QSonica)
The supernatant was applied to a 5
757 mL HisTrap HP column (GE Healthcare) and washed with 50 mL binding buffer containing 50 mM Tris-
His-YRS was eluted using a 0-500 mM
The eluted His-YRS was dialyzed overnight at 4°C
760 against 50 mM Tris-HCl, pH 8, 500 mM NaCl, 30 mM imidazole, 1 mM TCEP with the addition of His-
Cleaved His tags from His-YRS and TEV
YRS was further purified by gel filtration using a HiLoad 16/600 Superdex 200 column (GE

human Atg7 = human Atg7 (Homo sapiens, UniProt O95352); assay: E1-E2 transthiolation HTRF assay, ATG7 (RH-GABARAP); format: biochemical
From the text: (§1) 592 E1-E2 Transthiolation Assays
(§2) 593 An Homogeneous Time-Resolved Fluorescence (HTRF) enzyme assay was employed to evaluate
(§3) 594 compound activity against ATG7 as previously described (11). In this assay, a Flag-tagged ATG8 homolog
(§4) 595 (GABA type A receptor-associated protein; GABARAP) is activated by ATG7 and then transthiolated to a
(§5) 596 GST-tagged E2 (ATG3). The product of the enzyme reaction, Flag-GABARAP-ATG3-GST, is quantified
(§6) 597 by measuring FRET between Europium-Cryptate labelled monoclonal anti-Flag M2 (CisBio International,
598 Cat# 61FG2KLB) and PHYCOLINK goat anti-GST allophycocyanin (Prozyme, PJ252p1). […]
(§7) 606 Compounds were incubated with mature stage V gametocytes ([…], kind gift from Professor Chris Janse
(§8) 607 at Leiden University Medical Center (LUMC), the Netherlands) for 48 hours in 384 well plates before
(§9) 608 gamete formation was triggered by a drop in temperature and addition of xanthurenic acid. […]
(§10) 611 Multiple data sets using different gametocyte cultures were collected on each of two separate days.
(§11) 613 Activity against exoerythrocytic stages
614 Primary human hepatocytes (H1500.H15B+ Lot No. HC10-10 Cryopreserved human hepatocytes)
615 were cultured for 2 days and then overlaid with P. falciparum NF54 sporozoites and compounds.
616 Supernatant was refreshed daily with fresh compounds.

[2] = biological target: ubiquitin activating enzyme (UAE) (Homo sapiens, UniProt P22314); assay: E1-E2 transthiolation HTRF assay, UAE; format: biochemical
From the text: as §1, §2, §3, §4, §5, §6
(§12) 598 Cat# 61FG2KLB) and PHYCOLINK goat anti-GST allophycocyanin (Prozyme, PJ252p1). The activation
599 and transthiolation of ubiquitin by Ubiquitin Activating Enzyme, activation and transthiolation of NEDD8
600 by NEDD8 Activating Enzyme. […]
as §7, §8, §9, §10, §11
614 Primary human hepatocytes (H1500.H15B+ Lot No. HC10-10 Cryopreserved human hepatocytes) […]

[3] = system: P. falciparum Pf3D70087/N9; assay: Therapeutic efficacy in SCID mouse P. falciparum model; format: in vivo, Plasmodium falciparum; conditions: single dose 50 mg/kg i.p.
From the text: 589 by genomic sequencing and were routinely tested for mycoplasma contamination using MycoAlert™
590 Mycoplasma Detection Kit (Lonza, Capsugel Australia).
as §1, §2, §3, §4, §5, §6, §12
599 and transthiolation of ubiquitin by Ubiquitin Activating Enzyme, activation and transthiolation of NEDD8 […]
605 Activity against male gametes was assessed using the dual gamete formation assay (PfDGFA)(32). […]
609 exflagellation was recorded and quantified by automated microscopy. […]
610 express Pfs25 on their surface after 24 h at 28°C was assessed by single-image fluorescence microscopy. […]
624 falciparum (Pf3D70087/N9) on day 0. The antimalarial efficacy was assessed following administration (i.p.) […]
638 precipitated with acetonitrile and the remaining compound was assessed by LC-MS/MS in the selected reaction […]

PfYRS = PfYRS (Plasmodium falciparum, UniProt Q8IAR7); assay: Tyrosine acylation of cognate tRNATyr by PfYRS; format: biochemical
PfYRS, sequence (Q8IAR7 entry or part of it): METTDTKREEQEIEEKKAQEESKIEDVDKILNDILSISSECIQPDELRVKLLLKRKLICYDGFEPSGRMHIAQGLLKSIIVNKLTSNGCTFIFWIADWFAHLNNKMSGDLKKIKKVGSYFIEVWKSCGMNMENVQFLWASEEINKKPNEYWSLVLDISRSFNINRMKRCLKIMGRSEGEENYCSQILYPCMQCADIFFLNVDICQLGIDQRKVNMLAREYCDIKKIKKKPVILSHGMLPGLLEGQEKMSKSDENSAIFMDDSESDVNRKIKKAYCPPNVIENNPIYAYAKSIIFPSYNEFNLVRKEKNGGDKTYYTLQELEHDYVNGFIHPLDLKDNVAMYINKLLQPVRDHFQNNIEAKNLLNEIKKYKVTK

human Atg7, sequence (O95352 whole entry): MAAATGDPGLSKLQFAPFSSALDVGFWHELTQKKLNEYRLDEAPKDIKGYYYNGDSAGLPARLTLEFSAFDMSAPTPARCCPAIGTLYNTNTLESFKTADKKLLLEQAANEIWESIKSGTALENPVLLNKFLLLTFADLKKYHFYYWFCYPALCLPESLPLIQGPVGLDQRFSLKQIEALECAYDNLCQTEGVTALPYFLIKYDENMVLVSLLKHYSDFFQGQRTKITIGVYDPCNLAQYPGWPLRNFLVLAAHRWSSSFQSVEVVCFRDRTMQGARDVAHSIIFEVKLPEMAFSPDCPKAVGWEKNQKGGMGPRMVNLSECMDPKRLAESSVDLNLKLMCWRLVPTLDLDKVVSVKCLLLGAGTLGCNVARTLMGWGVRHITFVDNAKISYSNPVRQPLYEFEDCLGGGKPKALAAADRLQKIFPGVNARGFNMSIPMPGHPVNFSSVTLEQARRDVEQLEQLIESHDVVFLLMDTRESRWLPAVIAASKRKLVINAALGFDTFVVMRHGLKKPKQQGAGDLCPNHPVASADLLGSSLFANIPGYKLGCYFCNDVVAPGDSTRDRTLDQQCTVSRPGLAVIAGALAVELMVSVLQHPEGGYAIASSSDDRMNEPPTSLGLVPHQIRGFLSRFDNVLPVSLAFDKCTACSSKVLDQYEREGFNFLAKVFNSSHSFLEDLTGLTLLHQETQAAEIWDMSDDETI
ubiquitin activating enzyme (UAE), sequence (P22314 whole entry): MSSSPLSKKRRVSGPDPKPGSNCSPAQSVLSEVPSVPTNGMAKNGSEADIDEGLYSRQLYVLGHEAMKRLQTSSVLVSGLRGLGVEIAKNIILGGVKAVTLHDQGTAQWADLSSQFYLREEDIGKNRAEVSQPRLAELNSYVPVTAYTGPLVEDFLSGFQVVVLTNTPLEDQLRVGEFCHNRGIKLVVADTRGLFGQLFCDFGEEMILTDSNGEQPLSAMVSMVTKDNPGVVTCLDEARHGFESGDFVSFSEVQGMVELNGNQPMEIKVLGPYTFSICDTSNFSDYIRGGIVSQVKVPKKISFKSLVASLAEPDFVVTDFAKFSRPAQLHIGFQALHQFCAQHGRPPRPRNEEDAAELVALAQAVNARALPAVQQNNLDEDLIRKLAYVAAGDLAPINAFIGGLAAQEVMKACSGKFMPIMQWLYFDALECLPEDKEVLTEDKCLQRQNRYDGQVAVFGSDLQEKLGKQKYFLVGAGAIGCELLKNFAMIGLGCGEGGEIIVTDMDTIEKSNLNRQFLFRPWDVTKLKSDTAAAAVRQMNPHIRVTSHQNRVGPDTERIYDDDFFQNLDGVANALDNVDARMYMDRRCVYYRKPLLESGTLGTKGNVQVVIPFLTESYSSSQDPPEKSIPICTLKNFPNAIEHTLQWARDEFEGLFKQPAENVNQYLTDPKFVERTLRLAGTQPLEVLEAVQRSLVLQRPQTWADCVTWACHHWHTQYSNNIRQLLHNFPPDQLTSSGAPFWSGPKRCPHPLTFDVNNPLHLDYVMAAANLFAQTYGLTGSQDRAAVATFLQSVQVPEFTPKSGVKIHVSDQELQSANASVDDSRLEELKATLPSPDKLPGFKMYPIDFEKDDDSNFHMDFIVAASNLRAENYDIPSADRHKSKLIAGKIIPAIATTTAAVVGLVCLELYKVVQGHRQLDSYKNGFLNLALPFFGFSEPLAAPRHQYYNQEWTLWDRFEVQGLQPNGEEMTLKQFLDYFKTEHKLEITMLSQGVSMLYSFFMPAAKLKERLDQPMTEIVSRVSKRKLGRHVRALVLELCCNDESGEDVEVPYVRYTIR

Structure (SMILES): Nc1ncnc2c1c(OC(F)F)nn2[C@@H]1O[C@H](COS(N)(=O)=O)[C@@H](O)[C@H]1O [ML901]
- eIF2α phosphorylation ([1]; eIK1 knockout parasites): does not result in eIF2α phosphorylation
- eIF2α phosphorylation ([1]; wildtype P. falciparum cultures): triggers eIF2α phosphorylation
- IC50 (human Atg7): 33 nM
- IC50 [2]: > 1000 nM
- effect on parasitemia ([3]; SCID mice engrafted with P. falciparum infected human RBCs): reduction of parasitemia to baseline
- toxicity ([3]; SCID mice): no evidence of toxicity
- IC50 (PfYRS): 53000 nM
